Results taken from publication PMC10516900 (Communications Biology, 2023).
Several values for one entry are separate records, joined by “and”; a condition that tells them apart may be missing. Identical values can stand only once.

What was measured:
Format in all cases: cell-based, human
[1] = test system: HCT116 (p53-/-) cells; assay: Cell proliferation assay (WST-1), HCT116 (p53-/-); details: for Cell viability (WST-1 absorbance): P53-/-, absorbance at 450 nm
Procedure: (§1) After transfection, a cell proliferation assay was conducted each day using EZ-Cytox (Daeilbio, WST-1; #EZ-1000), using the manufacturer’s instructions. For P50429, the cells were seeded at 3000 or 6000 cells per well with an inhibitor concentration of 25 μM and 12.5 to 100 μM, respectively. EZ-Cytox (DoGEN, EZ-3000) was diluted using media and incubated for 30 min. The absorbance was measured at a wavelength of 450 nm using a microplate absorbance reader (Bio-Rad).

[2] = test system: HCT116 (p53+/+) cells; assay: Colony formation assay, HCT116 (p53+/+); details: for Colony formation, colony number: WT (p53+/+), 10 days, three experiments and AVERAGE
Procedure: (§2) The cells were re-suspended with trypsin-EDTA, and 1000 cells were seeded in 35 mm dishes 48 h after transfection. After 10 days, the cells were washed with PBS and fixed in 4% paraformaldehyde for 10 min before being stained with Crystal violet for 30 min and washed with PBS.

[3] = test system: HCT116 (p53+/+) cells; assay: Cell proliferation assay (WST-1), HCT116 (p53+/+); details: absorbance at 450 nm
Procedure: as §1

[4] = test system: p53; assay: Western blot analysis of protein levels, HCT116 (p53+/+)
Procedure: Stained colonies were counted in three independent experiments. The data represent the mean ± SD (*: p < 0.05, **: p < 0.005, and ***: p < 0.0005).
A total of 10–50 μg protein was extracted from cells and used for Western blot analysis. Briefly, the cells were lysed using protein lysis buffer (50 mM Tris–Cl, 150 mM NaCl, 1% Triton X-100, 1 mM EDTA, 200 mM Na3VO4, 1x proteinase inhibitor, pH 7.4) and the protein concentration was measured using a Micro BCA^TM Protein Assay kit (Thermo Scientific), based on the standard curve of BSA. The antibodies used for immunoblot analysis were purchased and assessed for equal loading as follows: rabbit anti-USP7 (#A300-034, dilution ratio 1:1000) and rabbit anti-USP47 (#A301-048A, 1:1000) from Bethyl Laboratories; mouse anti-Flag (#F1804, 1:1000) from Sigma Aldrich; rabbit anti-ubiquitin (#3933, 1:2000) from Cell Signaling; mouse anti-p53 (#sc-126, 1:1000), and mouse anti-HSP90α/β (#sc-13119, 1:5000) from Santa Cruz Biotechnology; rabbit anti-β-actin (#LF-PA0207, 1:5000) from AbFrontier. Samples were analyzed using SDS-PAGE, and chemiluminescence was measured using the Ez-Capture MG imaging system (ATTO Corporation).

[5] = test system: HCT116 (p53-/-) cells; assay: Colony formation assay, HCT116 (p53-/-); details: for Colony formation, colony number: KO (p53-/-), 10 days, three experiments and AVERAGE
Procedure: as §2

[6] = test system: HCT116 (p53+/+) cells; assay: Q-PCR relative expression levels, HCT116 (p53+/+)
[7] = test system: HCT116 (p53-/-) cells; assay: Q-PCR relative expression levels, HCT116 (p53-/-)
Source text: (d) Western blot analysis was
The data represent the mean ± SD (*;p<0.05,
(1 picture or pasted object on this page, not shown here)

“USP47i: siRNA targeting USP47 (5′-TGAAAAGGGATGTGCAAAA-3′) (chemistry not given here)” was tested, and the “Cell viability (WST-1 absorbance)” value ([1]; day 1 after transfection) was 0.306, the “Cell viability (WST-1 absorbance)” value ([1]; day 2 after transfection) was 0.559 and the “Cell viability (WST-1 absorbance)” value ([1]; day 3 after transfection) was 0.8146. The “Cell viability (WST-1 absorbance)” value ([1]; day 4 after transfection) was 1.235, the “cell viability compared to control cells” value ([1]; p53-deficient HCT116) was “did not yield any discernible differences” and the “decrease in the number of colonies relative to control cells” value ([2]; HCT116 p53+/+, Fig. 1b) was “approximately 30%”. The “Colony formation, colony number” value [2] was 271 and 259 and 252, the “Colony formation, colony number” value ([2]; mean) was 260.667 and the “Cell viability (WST-1 absorbance)” value ([3]; day 1 after transfection) was 0.327. For the same substance, the “Cell viability (WST-1 absorbance)” value ([3]; day 2 after transfection) was 0.527, the “Cell viability (WST-1 absorbance)” value ([3]; day 3 after transfection) was 0.7565 and the “Cell viability (WST-1 absorbance)” value ([3]; day 4 after transfection) was 0.9428. The “protein levels of p53” value [4] was “increased”, the “Colony formation, colony number” value [5] was 367 and 379 and 377 and the “Colony formation, colony number” value ([5]; mean) was 374.333. The “colony formation compared to control cells” value ([5]; p53-deficient HCT116) was “did not yield any discernible differences”, the “relative expression level of USP7 (Q-PCR)” value [6] was 1.017 and the “relative expression level of USP47 (Q-PCR)” value [6] was 0.5092. The “relative expression level of USP7 (Q-PCR)” value [7] was 0.9689 and the “relative expression level of USP47 (Q-PCR)” value [7] was 0.3387.
